Results taken from ChEMBL document CHEMBL3045437, “Synthesis of potential anticancer derivatives of pyrido[1,2-a]benzimidazoles” (Med Chem Res, 2012).
Values after ≈ are worked out from the molar mass of the structure shown.

system: MCF7; assay: Cytotoxicity against Homo sapiens (human) MCF7 cells after 48 hr by SRB assay; format: functional, cell-based; settings: MCF7, 48 h

First: Cc1cc(N2CCN(c3ccccc3F)CC2)n2c(nc3ccc(Cl)cc32)c1C#N
Second: Cc1cc(N2CCN(c3ccccc3F)CC2)n2c(nc3ccc(C(=O)O)cc32)c1C#N
The IC50 of the first is 2.2-fold lower: 5.72 µg/mL (≈ 13.6 µM) for the first, 12.6 µg/mL (≈ 29.3 µM) for the second.

`N#Cc1c(-c2ccccc2)cc(Cl)n2c1nc1ccc(C(=O)O)cc12` and `N#Cc1c(-c2ccccc2)cc(Cl)n2c1nc1ccc(Cl)cc12` are within 1.5-fold of each other in IC50: 3.58 µg/mL (≈ 10.3 µM) for the first, 3.89 µg/mL (≈ 11.5 µM) for the second.

`Cc1c(CCN2CCN(c3ccccc3F)CC2)c(N2CCN(c3ccccc3F)CC2)n2c(nc3ccc(C(=O)O)cc32)c1C#N` and `Cc1c(CCN2CCN(c3ccccc3F)CC2)c(N2CCN(c3ccccc3F)CC2)n2c(nc3ccc(Cl)cc32)c1C#N` are within 1.5-fold of each other in IC50: 9.9 µg/mL (≈ 15.6 µM) for the first, 14 µg/mL (≈ 22.4 µM) for the second.

`Cc1cc(Cl)n2c(nc3ccc(C(=O)O)cc32)c1C#N` and `Cc1cc(Cl)n2c(nc3ccc(Cl)cc32)c1C#N` are within 1.5-fold of each other in IC50: 12.8 µg/mL (≈ 44.9 µM) for the first, 8.61 µg/mL (≈ 31.2 µM) for the second.

First: N#Cc1c(-c2ccccc2)cc(N2CCN(c3ccccc3F)CC2)n2c1nc1ccc(Cl)cc12
Second: N#Cc1c(-c2ccccc2)cc(N2CCN(c3ccccc3F)CC2)n2c1nc1ccc(C(=O)O)cc12
The IC50 of the first is 1.7-fold lower: 10.4 µg/mL (≈ 21.6 µM) for the first, 17.6 µg/mL (≈ 35.9 µM) for the second.

`Cc1c(CCCl)c(Cl)n2c(nc3ccc(C(=O)O)cc32)c1C#N` and `Cc1c(CCCl)c(Cl)n2c(nc3ccc(Cl)cc32)c1C#N` are within 1.5-fold of each other in IC50: 9.07 µg/mL (≈ 26 µM) for the first, 7.09 µg/mL (≈ 20.9 µM) for the second.

`Cc1c(CCO)c(=O)n2c([nH]c3ccc(C(=O)O)cc32)c1C#N` and `Cc1c(CCO)c(=O)n2c([nH]c3ccc(Cl)cc32)c1C#N` are within 1.5-fold of each other in IC50: 10.5 µg/mL (≈ 33.9 µM) for the first, 14.6 µg/mL (≈ 48.5 µM) for the second.

Compared with `Cc1cc(=O)n2c([nH]c3ccc(C(=O)O)cc32)c1C#N`, `Cc1cc(=O)n2c([nH]c3ccc(Cl)cc32)c1C#N` is 4.3-fold lower in IC50: 14.7 µg/mL (≈ 55 µM) for the first, 3.43 µg/mL (≈ 13.3 µM) for the second.

`N#Cc1c(-c2ccccc2)cc(=O)n2c1[nH]c1ccc(Cl)cc12` and `N#Cc1c(-c2ccccc2)cc(=O)n2c1[nH]c1ccc(C(=O)O)cc12` are within 1.5-fold of each other in IC50: 3.58 µg/mL (≈ 11.2 µM) for the first, 3.99 µg/mL (≈ 12.1 µM) for the second.
